This is an account of results in US12233143B2, “Topical compositions containing rose oil and cannabidiol and methods of making and using the same” (priority 2019, dated 2025).

Assay [1] has as its system human keratinocyte stem cells (KSC). Description: Migration of keratinocyte stem cells, scratch wound gap recovery. Type of assay: cell-based. The following applies: 24 hours of incubation. The method, then:
The effect of S-863d and S-863g on wound healing in keratinocytes was evaluated. The migration of human keratinocyte stem cells (KSC) was evaluated by measuring wound recovery using imaging on a system whereby a “wound gap” was created by scratching.
Materials: Human keratinocyte cells (KSC) were used at the third passage and cultured at 37° C. in the presence of 5% CO2. The NHEK cells were grown in keratinocyte serum free media supplemented with gentamycin (25 μg/mL), pituitary extract (PE) (25 μg/mL), and epidermal growth factor (EGF) (0.25 ng/ml). S-863d contained 3% phospholipids, 54% glycerin, 10% caprylic/capric triglyceride, 1% cannabidiol, 2% AlpineRoseActive™, 1% glycoin, 0.1% tocopherol, and water (ad 100%). The particle size (zAve) of S-863d was 90±50 nm, and the pH of S-863d was between 4.5 and 7.5. The total germ count of S-863d was <100 CFU/g. S-863d was stored at 4° C. in a dark space in a closed container. S-863g (negative control) contained 1% CBD in DMSO. S-863d was evaluated at 0.004%, 0.02%, and 0.1%. S-863g was evaluated at 0.00044%, 0.0013%, and 0.004%.
Methods: The KSCs were seeded in 24-well plates (previously coated with a collagen I solution) and cultured in culture medium for 24 hours. The medium was then replaced by assay medium and an artificial “wound gap” was generated by scratching the cell monolayers. The KSCs were labeled with calcien-AM. After 30 minutes of incubation (TO), the medium was replaced by assay medium containing or not (control condition) the test compounds or the reference compound (e.g. epidermal growth factor (EGF) at 10 ng/mL) and the cells were further incubated for 24 hours. The labeling with calcein-AM was renewed before the final timepoint. All experimental conditions were performed in triplicate. Cell migration into the migration zone was observed after 0 (TO) and 24 hours of incubation using a high-resolution imaging system INCell Analyzer′ 2200 (GE Healthcare) automated microscope and the artificial wound area was analyzed using ImageJ software. One picture was taken per well (objective lens×4). The artificial wound area was measured after 24 hours of incubation and compared to the area measured at TO in order to visualize and quantify the wound recovery. The effect of compounds on cell migration was compared to the untreated control.
The migration area (percentage of wound recovery) was calculated using the following formula: […]

Assay [2] relates to PMA-induced PGE2 release by NCTC-2544 keratinocytes. Kind of assay: PMA-induced PGE2 release, ELISA. The class given is cell-based, human. The method, then: (§1) The effect of S-863d and S-863g on inflammation in keratinocytes was evaluated by measuring phorbol myristate acetate (PMA)-induced interleukin-8 (IL-8) and prostaglandin E2 (PGE2) release from a NCTC-2544 keratinocyte cell line by enzyme-linked immunosorbent assay (ELISA).
(§2) Materials: A NCTC-2544 human keratinocyte cell line (NCTC-2544 cells) was cultured at 37° C. in the presence of 5% CO2. The NCTC-2544 cells were grown in Dulbecco's Modified Eagle Medium (DMEM) supplemented with L-glutamine (2 mM), penicillin (50 U/mL), Streptomycin (50 μg/mL), and fetal calf serum (FCS) (10%). S-863d contained 3% phospholipids, 54% glycerin, 10% caprylic/capric triglyceride, 1% cannabidiol, 2% AlpineRoseActive™, 1% glycoin, 0.1% tocopherol, and water (ad 100%). The particle size (zAve) of S-863d was 90±50 nm, and the pH of S-863d was between 4.5 and 7.5. The total germ count of S-863d was <100 CFU/g. S-863d was stored at 4° C. in a dark space in a closed container. S-863g (negative control) contained 1% CBD in DMSO. S-863 d was evaluated at 0.004%, 0.02%, and 0.1%. S-863g was evaluated at 0.00044%, 0.0013%, and 0.004%.
(§3) Methods: The keratinocytes were seeded in 96-well plates and cultured for 24 hours in culture medium. The medium was then replaced by culture medium containing or not (control) the test compounds or the reference compound (dexamethasone at 10′ M for IL-8 assay and indomethacin at 10′ M for PGE2 assay) and the cells were pre-incubated for 24 hours. After pre-incubation, the medium was replaced by culture medium containing or not (control) the test compounds or the reference compounds and the inflammatory inducer phorbol myristate acetate (PMA) at 0.1 μg/mL was added. The cells were further incubated for 24 hours. A control without inducer was performed in parallel (non-stimulated control condition). All experimental conditions were performed in triplicate. IL-8 and PGE2 released in the culture supernatants were measured by ELISA.
(§4) Inhibition of IL-8 and PMA-induced PGE2 release was measured using the following formula: […]
On the technique in general: In an ELISA, binding on a coated surface is turned into a signal by an enzyme label.

Assay [3] deals with PMA-induced IL-8 release by NCTC-2544 keratinocytes. Description: PMA-induced IL-8 release, ELISA. The following applies: Dexamethasone 10^−7 M, PMA 0.1 μg/ml. Type of assay: cell-based, human. As to the method: as §1, §2, §3, §4

Where “and” joins values, the source holds several entries; their conditions need not be identical. Identical values can stand only once. Some results are limits rather than exact numbers.

epidermal growth factor [EGF]: the “Effect on KSC migration / wound recovery (in words)” value in assay [1] (all tested concentrations) is “marked stimulation”. For the same compound, in assay [1] (EGF 10 ng/ml), the “Wound Recovery Mean” value is 73% and the “Wound recovery % Control” value is 183 % Control. Also, in assay [1] (EGF 10 ng/ml, single image), the “24 Hours Wound area” value was 0.46 mm^2 and 0.50 mm^2 and 0.76 mm^2; the “Wound Recovery” value is 80% and 75% and 64%.

In the case of `COc1ccc2c(c1)c(CC(=O)O)c(C)n2C(=O)c1ccc(Cl)cc1` [Indomethacin, indomethacin], the inhibition at 1 µM in assay [2] (Homo sapiens, NCTC-2544, read-out: PGE2 % Relative inhibition) is more than 100%. Besides, the “PGE2 Mean” value in assay [2] (Indomethacin 10^−6 M, PMA 0.1 μg/ml, non-diluted samples) was less than 39 pg/mL. The “PGE2 (pg/ml) dilution factor adjusted” value in assay [2] (Indomethacin 10^−6 M, PMA 0.1 μg/ml, non-diluted samples, single replicate) was less than 39 pg/mL. Further, the “PGE2 % Stimulated control” value in assay [2] (Indomethacin 10^−6 M, PMA 0.1 μg/ml, extrapolated from values below detection limit) is reported as less than 0%. Besides, the “Effect on PMA-induced PGE2 release (in words)” value in assay [2] (NCTC-2544 cells, PMA 0.1 μg/mL) is “completely inhibited”.

With `C[C@@H]1C[C@H]2[C@@H]3CCC4=CC(=O)C=C[C@]4(C)[C@@]3(F)[C@@H](O)C[C@]2(C)[C@@]1(O)C(=O)CO` [Dexamethasone, dexamethasone], in assay [3], the “IL-8 % Stimulated control” value worked out at 18% and the “IL-8 Mean” value was found to be 22112 pg/mL. The “IL-8 (pg/ml) dilution factor adjusted” value in assay [3] (single replicate) was 18117 pg/mL and 23002 pg/mL and 25217 pg/mL. In assay [3] (Homo sapiens, NCTC-2544, read-out: IL-8 % Relative inhibition), the inhibition at 0.1 µM is 82%.

For orientation: inhibition means the share of the control response that was lost under treatment.
